Structures are written as SMILES.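 In this assay, cells in 96-well plates receive the compound at five concentrations for 48 hours. Endpoints are linearly interpolated between the surrounding concentrations. Abbreviation: GI50, concentration required for 50% inhibition of growth. At the TGI there is no net growth.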

Holding throughout (test): DTP human tumour cell line panel, 48 h
Experiment [1] deals with A498 renal.
The subject of experiment [2] is CAKI-1 renal.
Experiment [3] has as its system CCRF-CEM leukemia.
Experiment [4] has as its system COLO 205 colon.
The subject of experiment [5] is M14 melanoma.
Experiment [6] deals with NCI-H460 lung.
Experiment [7] has as its system OVCAR-8 ovarian.
Experiment [8] deals with SR leukemia.
In experiment [9] the test system is TK-10 renal.
In experiment [10] the test system is SF-268 CNS.

On to `Cn1cc(C(=O)C[n+]2ccccc2)c2ccccc21`, for which the TGI in experiment [1] was 92.4 µM; in experiment [2], above 100 µM; in [3], above 100 µM; in [4], above 100 µM; in [5] it was above 100 µM; in [6], above 100 µM. In addition, the total growth inhibition concentration (TGI) in [7], in [8] and in [9] was above 100 µM each time.

As to `O=c1c2cc(Cl)ccc2sc2cccc(Cl)c12`, the total growth inhibition concentration (TGI) in experiment [1], in [2], in experiment [3], in experiment [4], in experiment [5] and in [6] was above 100 µM throughout. For the same compound, the total growth inhibition concentration (TGI) in experiment [7], in [10], in experiment [8] and in experiment [9] was above 100 µM throughout.

Regarding `CCNC(=O)O[C@H]1CN[C@H](C#Cc2cc3ncnc(Nc4ccc(OCc5cccc(F)c5)c(Cl)c4)c3s2)C1`, the GI50 in experiment [1] is 1.7 µM; in experiment [2], 0.88 µM; in [3] it was 2.91 µM; in [4], 6.9 µM; in experiment [5] it was above 22.6 µM; in experiment [6] it was 6.84 µM. Besides, the GI50 is 6.25 µM in [7], 6 µM in experiment [10], 6.99 µM in experiment [8] and 0.198 µM in experiment [9]. The total growth inhibition concentration (TGI) in experiment [1] was 11.7 µM; in [2] it was above 25 µM; in experiment [3], above 25 µM; in experiment [4], above 17.7 µM; in [5], above 25 µM; in [6] it was above 25 µM. In addition, the TGI in experiment [7] is above 25 µM; in experiment [10], above 25 µM; in experiment [8], above 25 µM; in experiment [9], 11.4 µM.

Turning to `Cc1cccc(C)c1NC(=O)C(=O)Nn1c(NN)nc2ccccc2c1=O`, the TGI in [1], in experiment [2], in [3], in experiment [4], in experiment [5] and in experiment [6] was above 100 µM each time. Further, the TGI in experiment [7], in [10], in experiment [8] and in experiment [9] was above 100 µM each time.

With `COc1cc(C2CC(c3ccc(Nc4ccnc5cc(Cl)ccc45)cc3)=NN2c2ccc(Cl)cc2)cc(OC)c1OC` (stereo not drawn), the GI50 in experiment [1] is 1.66 µM; in experiment [2], 2.12 µM; in experiment [3], 2.5 µM; in experiment [4], 3.28 µM; in experiment [5], 2.01 µM; in experiment [6], 3.16 µM. Besides, the GI50 in [7] was 4.19 µM; in experiment [10] it was 5.49 µM; in experiment [8], 1.2 µM; in experiment [9], 5.05 µM. Besides, the TGI was 50.6 µM in experiment [1]; above 100 µM in experiment [2]; above 100 µM in experiment [3]; 31.5 µM in experiment [4]; 9.61 µM in [5]; above 100 µM in [6]. For the same compound, the TGI in experiment [7] was above 100 µM; in experiment [10], above 100 µM; in experiment [8], 56.3 µM; in experiment [9], above 100 µM.

For the compound `N#CC1(C#N)C(C#N)(C#N)C12CCCCCC2`, the TGI in [1] was 34.1 µM; in experiment [2], 24.6 µM; in [3] it was 6.89 µM; in experiment [4], 33.7 µM; in experiment [5] it was 8.67 µM; in experiment [6] it was above 66.5 µM. The concentration for total growth inhibition (TGI) is 26.7 µM in [7], 48.9 µM in [10], 75.2 µM in experiment [8] and 30.5 µM in [9].

With `O=C1CCc2c(sc3[nH]c(=S)n(Cc4ccc(Cl)cc4)c(=O)c23)C1`, the GI50 in [1] was 1.87 µM; in [2] it was 0.451 µM; in experiment [3] it was 0.479 µM; in experiment [4], 1.92 µM; in [5] it was 0.477 µM; in experiment [6] it was 0.377 µM. For the same compound, the GI50 in [7] is 0.468 µM; in [10] it was 0.442 µM; in experiment [8], 0.562 µM; in experiment [9], 0.988 µM. Also, the TGI in experiment [1] is 7.25 µM; in experiment [3], above 100 µM; in [4], 3.71 µM; in experiment [5], above 56.3 µM; in [6], 3.7 µM; in experiment [7], above 100 µM. The concentration for total growth inhibition (TGI) in [10] was above 100 µM; in experiment [8], above 45.2 µM; in experiment [9], above 100 µM.

As to `CSc1nc(SC)c2c(CO)c(Br)n(Cc3ccccc3)c2n1`, the concentration for total growth inhibition (TGI) is 14.5 µM in [1]; 23.6 µM in experiment [2]; above 100 µM in [3]; above 100 µM in experiment [4]; above 100 µM in experiment [5]; 30.5 µM in experiment [6]. The concentration for total growth inhibition (TGI) was 44.1 µM in experiment [7], 33.7 µM in experiment [10], above 100 µM in experiment [8] and 79.4 µM in experiment [9].

In the case of `C=C1CC2(OC1=O)C(=O)Nc1ccccc12` (stereo not drawn), the GI50 in [1] is 5.91 µM; in [2] it was 1.29 µM; in experiment [3], 2.11 µM; in [4], 0.885 µM; in experiment [5], 2.71 µM; in experiment [6] it was 6.48 µM. Moreover, the GI50 in [7] is 2.91 µM; in experiment [10], 6.72 µM; in experiment [8], 1.32 µM; in [9], 1.8 µM. Also, the concentration for total growth inhibition (TGI) turned out to be 19.4 µM in experiment [1]; 2.65 µM in experiment [2]; 7.15 µM in experiment [3]; 2.41 µM in [4]; 10 µM in experiment [5]; 24.7 µM in experiment [6]. The TGI in experiment [7] was 11 µM; in experiment [10], 26 µM; in experiment [8], 6.03 µM; in [9], 4.09 µM.

As a reminder, the TGI is the concentration giving total growth inhibition. The term GI50 denotes the concentration that inhibits growth by half.

The values are drawn from PubChem BioAssay (NCI).
